Measured values as given in US20230040402A1, “ANTITUMOR DRUG FOR USE IN COMBINATION WITH IMMUNE CHECKPOINT INHIBITOR” (NIPPON SHINYAKU CO., LTD., priority 2019, published 2023).

How the values were obtained:
[1] = test system: mouse colorectal cancer cell line CT26; assay: Test Example 3: mPGES-1 inhibitor and anti-mouse PD-1 antibody in combination in allograft model of mouse colorectal cancer cell line CT26; type: in vivo; conditions: female BALB/c mouse, tumor volume on 21st day
From the text: (§1) On the day of transplantation, after the culture supernatant was removed, CT26 was washed with HBSS and collected. Collected CT26 was suspended in HBSS and used as cells for transplantation.
Under anesthesia, 3.0x10^5 cells for transplantation were subcutaneously transplanted into the right-hand side abdomen of each female BALB/c mouse.
The anti-mouse PD-1 antibody was intraperitoneally administered to the mice of the single therapy group of the anti-mouse PD-1 antibody and the combination therapy group, at a dosage of 100 µg/individual, twice a week after transplantation, from the 7th day of transplantation to the 20th day of transplantation.
Regarding the tumor volume (mm^3), the length and width of a tumor were measured by using an electronic caliper, and the tumor volume was calculated by the following formula.

[2] = test system: mouse colorectal cancer cell line CT26; assay: Test Example 4: mPGES-1 inhibitor and anti-mouse CTLA-4 antibody in combination in allograft model of mouse colorectal cancer cell line CT26; type: in vivo; conditions: female BALB/c mouse
From the text: as §1
Under anesthesia, 3.0×10^5 cells for transplantation were subcutaneously transplanted into the right-hand side abdomen of each female BALB/c mouse.
The anti-mouse CTLA-4 antibody was intraperitoneally administered to the mice of the single therapy group with the anti-mouse CTLA-4 antibody and the combination group, at a dosage of 100 µg/individual, twice a week after transplantation, from the 8th day of transplantation to the 20th day of transplantation.
Regarding the tumor volume (mm^3), the length and width of a tumor were measured by using an electronic caliper, and the tumor volume was calculated by the following formula

[3] = in combination with anti-mouse PD-1 antibody (100 µg/individual i.p. twice a week), compound 100 mg/kg orally twice a day, 7th to 20th day
[4] = used solely, 100 mg/kg (as free form) orally twice a day, 7th to 20th day of transplantation
[5] = in combination with anti-mouse CTLA-4 antibody (100 µg/individual i.p. twice a week), compound 100 mg/kg orally twice a day, 8th to 20th day
[6] = used solely, 100 mg/kg (as free substance) orally twice a day, 8th to 20th day of transplantation

COCc1nc2c(C(=O)Nc3cccc(Cl)c3C)cc(NC(=O)c3ccccc3C(F)(F)F)cc2[nH]1.Cc1ccc(S(=O)(=O)O)cc1 [compound 1, N-(3-chloro-2-methylphenyl)-2-(methoxymethyl)-6-({[2-(trifluoromethyl)phenyl]carbonyl}amino)-1H-benzimidazole-4-carboxamide 4-methylbenzenesulfonate]
tumor growth (tumor volume) [1, 3]: tumor growth was suppressed
tumor growth (tumor volume) [1, 4]: did not suppress tumor growth
tumor growth (tumor volume) [2, 5]: tumor growth was suppressed
tumor growth (tumor volume) [2, 6]: did not suppress tumor growth

Cc1c(Cl)cccc1NC(=O)c1cc(NC(=O)c2ccccc2C(F)(F)F)cc2[nH]c(C3(C(F)(F)F)CC3)nc12 [compound 2, N-(3-chloro-2-methylphenyl)-2-[1-(trifluoromethyl)cyclopropyl]-6-({[2-(trifluoromethyl)phenyl]carbonyl}amino)-1H-benzimidazole-4-carboxamide]
tumor growth (tumor volume) [1, 3]: tumor growth was suppressed
tumor growth (tumor volume) [1, 4]: did not suppress tumor growth
tumor growth (tumor volume) [2, 5]: tumor growth was suppressed
tumor growth (tumor volume) [2, 6]: did not suppress tumor growth
